Laboratory results: patent US20220265629A1, “TREATMENT OF SYSTOLIC DYSFUNCTION AND HEART FAILURE WITH REDUCED EJECTION FRACTION WITH THE COMPOUND (R)-4-(1-((3-(DIFLUOROMETHYL)-1-METHYL-1H-PYRAZOL-4-YL)SULFONYL)-1-FLUOROETHYL)-N-(ISOXAZOL-3-YL)PIPERIDINE-1-CARBOXAMIDE” (MyoKardia, Inc., priority 2019, published 2022)

System: patients with stable HFrEF
Test: HFrEF study Part 1 (SAD Cohorts 1 and 2): safety (TEAEs, troponin, ECG, Holter)
Format: in vivo, human
Protocol: Safety and efficacy assessments were conducted by measuring patients' vital signs and laboratory parameters; performing TTE to measure, e.g., systolic ejection time; performing electrocardiograms (e.g., 12-lead ECG), real-time ECG telemetry (e.g., at least 3-lead), and Holter ECG; and measuring levels of troponin (e.g., troponin I and/or troponin T) and […].
The following safety laboratory parameters were measured: (1) hematology parameters (CBC, including differential count, and platelet count); (2) serum chemistry parameters (e.g., sodium, potassium, chloride, bicarbonate, calcium, magnesium, urea, creatinine, ALP, ALT, AST, total bilirubin, glucose, and CPK); and (3) urinalysis parameters (e.g., pH, protein, glucose, leukocyte esterase, and blood).
Abnormal and/or rising troponin values (as per investigator's judgment and taking into account potential baseline troponin elevation frequently observed in heart failure) led to the patient being clinically evaluated for possible myocardial ischemia. […] The entire clinical context (e.g., signs, symptoms, new ECG changes, new troponin, and CK-MB abnormalities) was evaluated and correlated with any other relevant clinical findings, patient's medical history, and laboratory data to determine the clinical significance of the findings. Troponin results performed on Day 2 of Part 1 (SAD) and Day 10 of Part 2 (MAD) at a local lab were reviewed prior to the patient being discharged the next day.

Cn1cc(S(=O)(=O)[C@@](C)(F)C2CCN(C(=O)Nc3ccon3)CC2)c(C(F)F)n1 [Compound I, (R)-4-(1-((3-(difluoromethyl)-1-methyl-1H-pyrazol-4-yl)sulfonyl)-1-fluoroethyl)-N-(isoxazol-3-yl)piperidine-1-carboxamide]
TEAE Any SOC, any PT, % (175 mg (n = 8)): (25.0) % | TEAE Dyspnea, % (175 mg (n = 8)): (12.5) % | TEAE Fatigue, % (175 mg (n = 8)): (12.5) % | TEAE Infusion site discomfort, % (175 mg (n = 8)): (12.5) % | TEAE Urinary tract infection, % (175 mg (n = 8)): (12.5) % | TEAE Any SOC, any PT, % (350 mg (n = 8)): (62.5) % | TEAE Bursitis, % (350 mg (n = 8)): (12.5) % | TEAE Diarrhoea, % (350 mg (n = 8)): (12.5) % | TEAE Hypomagnesemia, % (350 mg (n = 8)): (12.5) % | TEAE Oral contusion, % (350 mg (n = 8)): (12.5) % | TEAE Proteinuria, % (350 mg (n = 8)): (12.5) % | TEAE Anemia, % (400 mg Split Dose (n = 4)): (25.0) % | TEAE Any SOC, any PT, % (400 mg Split Dose (n = 4)): (75.0) % | TEAE Neck pain, % (400 mg Split Dose (n = 4)): (25.0) % | TEAE Orthostatic hypotension, % (400 mg Split Dose (n = 4)): (25.0) % | TEAE Ventricular extrasystoles, % (400 mg Split Dose (n = 4)): (25.0) % | TEAE Any SOC, any PT, % (550 mg Split Dose (n = 2)): (50.0) % | TEAE Cardiac discomfort, % (550 mg Split Dose (n = 2)): 50.0% | TEAE Dyspnea, % (550 mg Split Dose (n = 2)): (50.0) % | TEAE Troponin increase, % (550 mg Split Dose (n = 2)): (50.0) % | maximum troponin I level (one subject) (550 mg, 24 hours post-dose, 4×ULN): 0.12 ng/mL | TEAE Anemia, % (Total Active (n = 12)): (8.3) % | TEAE Any SOC, any PT, % (Total Active (n = 12)): (83.3) % | TEAE Bursitis, % (Total Active (n = 12)): (8.3) % | TEAE Cardiac discomfort, % (Total Active (n = 12)): (8.3) % | TEAE Diarrhoea, % (Total Active (n = 12)): (8.3) % | TEAE Diverticulitis, % (Total Active (n = 12)): (8.3)- % | TEAE Dyspnea, % (Total Active (n = 12)): (8.3) % | TEAE Fatigue, % (Total Active (n = 12)): (8.3) % | TEAE Hypomagnesemia, % (Total Active (n = 12)): (8.3) % | TEAE Infusion site discomfort, % (Total Active (n = 12)): (8.3) % | TEAE Neck pain, % (Total Active (n = 12)): (8.3) % | TEAE Oral contusion, % (Total Active (n = 12)): (8.3) % | TEAE Orthostatic hypotension, % (Total Active (n = 12)): (8.3) % | TEAE Proteinuria, % (Total Active (n = 12)): (8.3) % | TEAE Troponin increase, % (Total Active (n = 12)): (8.3) % | TEAE Urinary tract infection, % (Total Active (n = 12)): (8.3) % | TEAE Ventricular extrasystoles, % (Total Active (n = 12)): (8.3) % | QTcF (study ECGs) (all patients): no signal for QTcF increase | Holter monitoring: atrial ectopy, atrial fibrillation, ventricular ectopy, NSVT runs (compared to placebo): no signal | active-treatment periods with transient troponin increase (3/30) (doses from 175 to 550 mg): 10% | subjects with transient troponin increase (3/12) (doses from 175 to 550 mg): 25% | safety and tolerability (single-ascending doses 175 to 550 mg): safe and generally well-tolerated
